Reference: article PMC4326827, “Biophysical Studies on Interactions and Assembly of Full-size E3 Ubiquitin Ligase” (The Journal of Biological Chemistry, 2014)
pKd: −log10 of the molar value. *: point of attachment. Biotin = O=C1N[C@H]2[C@H](CS[C@H]2CCCCC(=O)*)N1; Ahx = NCCCCCC(=O)O

Columns and labels:
[1] = biological target: GHR_pY595-SOCS2-EloBC complex; experiment: ITC of Cul5NTD into GHR_pY595-SOCS2-EloBC (cooperativity); format: binding, human; conditions: titration of Cul5NTD into GHR_pY595-SOCS2-EloBC complex
Experimental: Experiments were conducted using an iTC200 microcalorimeter instrument (GE Healthcare). […] Peptides and Tyr(P) were dissolved in the same buffer. Obtained data were analyzed and fitted using the Microcal Origin version 7.0 software package. Binding enthalpy, dissociation constants, and stoichiometry were determined by fitting the data using a one-set-of-site binding model.

[2] = system: CRL5^SOCS2 (SOCS2, EloB, EloC, Cul5, and Rbx2); experiment: Peptide bead pull-down from K562 cell lysate, CRL5^SOCS2 components; format: binding; conditions: immobilized peptide beads, human K562 total cell lysate, 2 h at 4 °C, tandem mass tags MS
Source text: (§1) After washing, bound proteins were eluted with SDS-sample buffer and prepared for tandem mass tags labeling and MS analysis as described previously ([17]).

SOCS2 = SOCS2 (UniProt O14508); experiment: peptide-bead pull-down from lysate, TMT MS; conditions: reference: GHR_Y595 peptide beads; sites Y595
[3] = system: CRL1^FBXO31 E3 ligase (FBXO31, Rbx1, Cul1, and Skp1); experiment: Peptide bead pull-down from K562 cell lysate, CRL1^FBXO31 subunits; format: binding; conditions: peptide beads, human K562 cell lysate, 2 h at 4 °C, MS
Source text: as §1

SOCS2-EloBC = biological target: T1, SOCS2-EloBC (Homo sapiens, UniProt O14508+Q15369+Q15370); experiment: ITC of GHR peptides and phosphotyrosine into SOCS2-EloBC; format: binding; conditions: 298 K
T1 construct: Recombinant human SOCS2 (amino acids 32–198); His6 (cleaved yes); made in house; host or cells: Escherichia coli BL21(DE3)
T1 sequence (O14508 32-198): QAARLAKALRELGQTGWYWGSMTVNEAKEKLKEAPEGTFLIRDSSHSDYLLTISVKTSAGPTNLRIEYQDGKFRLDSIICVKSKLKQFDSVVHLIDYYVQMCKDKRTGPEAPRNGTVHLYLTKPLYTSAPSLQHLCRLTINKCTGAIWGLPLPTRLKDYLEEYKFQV
T1 sequence (Q15369 17-112 partner limits assumed): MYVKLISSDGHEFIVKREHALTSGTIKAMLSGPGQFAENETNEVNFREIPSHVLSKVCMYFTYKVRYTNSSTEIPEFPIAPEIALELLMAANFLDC
T1 sequence (Q15370 whole entry partner, the tested form may be a part): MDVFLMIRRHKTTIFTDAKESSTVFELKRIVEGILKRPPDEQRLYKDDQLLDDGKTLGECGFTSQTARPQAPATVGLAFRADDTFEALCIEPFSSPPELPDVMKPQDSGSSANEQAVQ

“Cul5NTD: Recombinant human Cul5NTD (N-terminal domain, residues 1–386) expressed in E. coli” was tested, and the “change in Kd or ΔH (cooperativity)” value [1] was “No change in the Kd or ΔH values was observed”.
With “Biotin-aminohexanoic acid-PVPDpYTSIHIV-amide [GHR_pY595-beads]” the “capture of CRL5^SOCS2 components on peptide beads” value [2] was “endogenous components of CRL5^SOCS2 E3 ligase were only captured by GHR_pY595-beads”.
For “growth hormone receptor (GHR) (from UniProt P10912) GHR_pY595 peptide beads”, the “binding against the reference” value (SOCS2) was “gained”.
For “GHR_Y595-containing beads: biotinylated non-phosphorylated GHR_Y595 peptide immobilized on high capacity Neutravidin beads ({Biotin-Ahx}-PVPDYTSIHIV-NH2; SMILES CC[C@H](C)[C@H](NC(=O)[C@H](CO)NC(=O)[C@@H](NC(=O)[C@H](Cc1ccc(O)cc1)NC(=O)[C@H](CC(=O)O)NC(=O)[C@@H]1CCCN1C(=O)[C@@H](NC(=O)[C@@H]1CCCN1C(=O)CCCCCNC(=O)CCCC[C@@H]1SC[C@@H]2NC(=O)N[C@@H]21)C(C)C)[C@@H](C)O)C(=O)N[C@@H](Cc1c[nH]cn1)C(=O)N[C@H](C(=O)N[C@H](C(N)=O)C(C)C)[C@@H](C)CC)”, the “capture of CRL5^SOCS2 components on peptide beads” value [2] was “no significant capturing from cell lysates was observed” and the “capture of CRL1^FBXO31 subunits” value [3] was “significant recruitment of the four CRL1^FBXO31 subunits was also observed”.
With `N[C@@H](Cc1ccc(OP(=O)(O)O)cc1)C(=O)O` [Tyr(P), phosphotyrosine] the pKd (SOCS2-EloBC; 350 μM peptide or 2 mM Tyr(P) into 30 μM SOCS2-EloBC, 50 mM HEPES, pH 7.5, 250 mM NaCl, 0.5 mM TCEP, one-set-of-site model) was 3.72 and the “binding affinity weaker than for phosphorylated peptide GHR_pY595” value (SOCS2-EloBC; ratio of Kd) was ~100 -fold.
